Assay results published in PubChem BioAssay (NCI).
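Cultured in 96-well plates, cells were exposed to test compound for 48 hours across five concentrations. At the GI50, growth is halved. TGI marks complete inhibition of growth.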

Columns and labels:
Assay in all cases: DTP human tumour cell line panel, 48 h
[1] = system: SNB-19 CNS
[2] = system: MCF7 breast
[3] = system: 786-0 renal
[4] = system: SK-MEL-5 melanoma
[5] = system: NCI-H522 lung
[6] = system: NCI-H460 lung
[7] = system: MOLT-4 leukemia
[8] = system: SF-295 CNS
[9] = system: UACC-62 melanoma
[10] = system: DU-145 prostate
[11] = system: OVCAR-4 ovarian
[12] = system: K-562 leukemia
[13] = system: HOP-62 NSCLC
[14] = system: SK-OV-3 ovarian
[15] = system: T-47D breast
[16] = system: HCT-116 colon
[17] = system: MDA-MB-231 breast
[18] = system: UO-31 renal
[19] = system: RPMI-8226 leukemia
[20] = system: OVCAR-3 ovarian
[21] = system: PC-3 prostate
[22] = system: EKVX NSCLC
[23] = system: SK-MEL-2 melanoma
[24] = system: CAKI-1 renal
[25] = system: A549 NSCLC
[26] = system: HOP-92 NSCLC
[27] = system: KM12 colon
[28] = system: HS 578T breast
[29] = system: SW-620 colon
[30] = system: SN12C renal
[31] = system: A498 renal
[32] = system: SNB-75 CNS
[33] = system: OVCAR-8 ovarian
[34] = system: M14 melanoma
[35] = system: SR leukemia
[36] = system: NCI-H226 lung
[37] = system: HCC-2998 colon
[38] = system: U251 CNS
[39] = system: ACHN renal
[40] = system: HT29 colon
[41] = system: OVCAR-5 ovarian
[42] = system: HL-60(TB) leukemia
[43] = system: LOX IMVI melanoma
[44] = system: NCI/ADR-RES ovarian
[45] = system: UACC-257 melanoma
[46] = system: MDA-MB-468 breast
[47] = system: MDA-MB-435
[48] = system: IGROV1 ovarian
[49] = system: MALME-3M melanoma
[50] = system: CCRF-CEM leukemia
[51] = system: NCI-H23 lung
[52] = system: BT-549 breast
[53] = system: RXF 393 renal
[54] = system: SF-539 CNS
[55] = system: HCT-15 colon
[56] = system: SF-268 CNS
[57] = system: TK-10 renal
[58] = system: SK-MEL-28 melanoma
[59] = system: COLO 205 colon

SMILES: O=C(c1ccc(Cl)cc1)C1[C@H](c2ccccc2Cl)[C@@H](c2ccccc2)NC12C(=O)Nc1ccc(Cl)cc12 (stereo partly specified)
- GI50 [1]: 23.1 µM
- TGI [1]: 78.9 µM
- GI50 [2]: 17.6 µM
- TGI [2]: 42.6 µM
- GI50 [3]: 19.1 µM
- TGI [3]: 39.7 µM
- GI50 [4]: 16.6 µM
- TGI [4]: 30.6 µM
- GI50 [5]: 13.7 µM
- TGI [5]: 30.3 µM
- GI50 [6]: 19 µM
- TGI [6]: 36.3 µM
- GI50 [7]: 23.6 µM
- TGI [7]: 78.7 µM
- GI50 [8]: 16.9 µM
- TGI [8]: 34.8 µM
- GI50 [9]: 13.4 µM
- TGI [9]: 26.7 µM
- GI50 [10]: 20.1 µM
- TGI [10]: 42.7 µM
- GI50 [11]: 20.8 µM
- TGI [11]: 58.4 µM
- GI50 [12]: 26.6 µM
- TGI [12]: > 100 µM
- GI50 [13]: 14.8 µM
- TGI [13]: 29.3 µM
- GI50 [14]: 21 µM
- TGI [14]: 61.2 µM
- GI50 [15]: 16.1 µM
- TGI [15]: 39.6 µM
- GI50 [16]: 14.6 µM
- TGI [16]: 28.2 µM
- GI50 [17]: 15.6 µM
- TGI [17]: 29.5 µM
- GI50 [18]: 12.9 µM
- TGI [18]: 37.7 µM
- GI50 [19]: 25.6 µM
- TGI [19]: 79.7 µM
- GI50 [20]: 16.8 µM
- TGI [20]: 35.3 µM
- GI50 [21]: 15.1 µM
- TGI [21]: 36.1 µM
- GI50 [22]: 18 µM
- TGI [22]: 47.6 µM
- GI50 [23]: 16.2 µM
- TGI [23]: 32.7 µM
- GI50 [24]: 15.2 µM
- TGI [24]: 43.5 µM
- GI50 [25]: 18.5 µM
- TGI [25]: 46.1 µM
- GI50 [26]: 16 µM
- TGI [26]: 33.8 µM
- GI50 [27]: 18.2 µM
- TGI [27]: 38.1 µM
- GI50 [28]: 16.5 µM
- TGI [28]: 40.2 µM
- GI50 [29]: 15.9 µM
- TGI [29]: 31.8 µM
- GI50 [30]: 15.3 µM
- TGI [30]: 28.7 µM
- GI50 [31]: 19.9 µM
- TGI [31]: 46.6 µM
- GI50 [32]: 11.1 µM
- TGI [32]: 36.9 µM
- GI50 [33]: 17.9 µM
- TGI [33]: 39.5 µM
- GI50 [34]: 15.3 µM
- TGI [34]: 28.7 µM
- GI50 [35]: 18.5 µM
- TGI [35]: 47.7 µM
- GI50 [36]: 14.9 µM
- TGI [36]: 30.3 µM
- GI50 [37]: 16.3 µM
- TGI [37]: 32.7 µM
- GI50 [38]: 16.8 µM
- TGI [38]: 33 µM
- GI50 [39]: 25.5 µM
- TGI [39]: 79.5 µM
- GI50 [40]: 15.6 µM
- TGI [40]: 32.5 µM
- GI50 [41]: 15.9 µM
- TGI [41]: 31.6 µM
- GI50 [42]: 19.9 µM
- TGI [42]: 52.5 µM
- GI50 [43]: 14.9 µM
- TGI [43]: 28.1 µM
- GI50 [44]: 16.3 µM
- TGI [44]: 33.2 µM
- GI50 [45]: 20.4 µM
- TGI [45]: 44.1 µM
- GI50 [46]: 11.8 µM
- TGI [46]: 25.8 µM
- GI50 [47]: 16 µM
- TGI [47]: 30.3 µM
- GI50 [48]: 16.7 µM
- TGI [48]: 38.5 µM
- GI50 [49]: 15.4 µM
- TGI [49]: 29 µM
- GI50 [50]: 26.7 µM
- TGI [50]: 72.9 µM
- GI50 [51]: 16.2 µM
- TGI [51]: 33.2 µM
- GI50 [52]: 16.2 µM
- TGI [52]: 33.3 µM
- GI50 [53]: 13.9 µM
- TGI [53]: 29.3 µM
- GI50 [54]: 16.9 µM
- TGI [54]: 32.6 µM
- GI50 [55]: 16.1 µM
- TGI [55]: 31.3 µM
- GI50 [56]: 19.5 µM
- TGI [56]: 48.2 µM
- GI50 [57]: 19.6 µM
- TGI [57]: 53.2 µM
- GI50 [58]: 17.1 µM
- TGI [58]: 31.6 µM
- GI50 [59]: 16.5 µM
- TGI [59]: 30.1 µM

SMILES: Cc1ccc(C2CC(c3ccc(NC(=S)Nc4ccccc4)cc3)=NN2c2ccc(S(N)(=O)=O)cc2)cc1 (stereo unspecified)
- GI50 [1]: 4.97 µM
- TGI [1]: 23.2 µM
- GI50 [2]: 2.78 µM
- TGI [2]: 14.2 µM
- GI50 [3]: 3.89 µM
- TGI [3]: 22.5 µM
- GI50 [4]: 4.83 µM
- TGI [4]: 17.8 µM
- GI50 [5]: 2.84 µM
- TGI [5]: 14.8 µM
- GI50 [6]: 3.1 µM
- TGI [6]: 11.5 µM
- GI50 [7]: 2.62 µM
- TGI [7]: 13.2 µM
- GI50 [8]: 3.28 µM
- TGI [8]: 15.7 µM
- GI50 [9]: 3.45 µM
- TGI [9]: 16 µM
- GI50 [10]: 8.22 µM
- TGI [10]: 97.1 µM
- GI50 [11]: 4.06 µM
- TGI [11]: 33.5 µM
- GI50 [12]: 3.2 µM
- TGI [12]: 47.6 µM
- GI50 [13]: 8.74 µM
- TGI [13]: 34.2 µM
- GI50 [14]: 11 µM
- TGI [14]: 32.9 µM
- GI50 [15]: 3.16 µM
- TGI [15]: 17.5 µM
- GI50 [16]: 3.28 µM
- TGI [16]: 16.9 µM
- GI50 [17]: 9.63 µM
- TGI [17]: 29.6 µM
- GI50 [18]: 2.67 µM
- TGI [18]: 13.3 µM
- GI50 [19]: 3.45 µM
- TGI [19]: > 100 µM
- GI50 [20]: 3.28 µM
- TGI [20]: 22.7 µM
- GI50 [21]: 2.75 µM
- TGI [21]: 14 µM
- GI50 [22]: 3.75 µM
- TGI [22]: 37.3 µM
- GI50 [23]: 6.22 µM
- TGI [23]: 21.1 µM
- GI50 [24]: 3.12 µM
- TGI [24]: 12.7 µM
- GI50 [25]: 4.09 µM
- TGI [25]: > 100 µM
- GI50 [26]: 3.81 µM
- TGI [26]: 22 µM
- GI50 [27]: 4.67 µM
- TGI [27]: 23.7 µM
- GI50 [28]: 8.04 µM
- TGI [28]: 48.4 µM
- GI50 [29]: 3.52 µM
- TGI [29]: 26.6 µM
- GI50 [30]: 4.23 µM
- TGI [30]: 29.5 µM
- GI50 [31]: 6.73 µM
- TGI [31]: 25.8 µM
- GI50 [32]: 2.01 µM
- TGI [32]: 14.6 µM
- GI50 [33]: 5.96 µM
- TGI [33]: 67.8 µM
- GI50 [34]: 4.2 µM
- TGI [34]: 17.8 µM
- GI50 [35]: 3.3 µM
- TGI [35]: 27.2 µM
- GI50 [36]: 3.31 µM
- TGI [36]: 19.1 µM
- GI50 [37]: 3.58 µM
- TGI [37]: 18.3 µM
- GI50 [38]: 5.29 µM
- TGI [38]: 24.2 µM
- GI50 [39]: 3.25 µM
- TGI [39]: 11.6 µM
- GI50 [40]: 2.55 µM
- TGI [40]: 8.75 µM
- GI50 [41]: 4.54 µM
- TGI [41]: 17.9 µM
- GI50 [42]: 2.33 µM
- TGI [42]: 6.51 µM
- GI50 [43]: 4.76 µM
- TGI [43]: 20 µM
- GI50 [44]: 4.04 µM
- TGI [44]: 49.5 µM
- GI50 [45]: 6.4 µM
- TGI [45]: 30.9 µM
- GI50 [46]: 1.81 µM
- TGI [46]: 5.56 µM
- GI50 [47]: 3.06 µM
- TGI [47]: 25 µM
- GI50 [48]: 3.44 µM
- TGI [48]: 14.7 µM
- GI50 [49]: 6.88 µM
- TGI [49]: 23.6 µM
- GI50 [50]: 3.18 µM
- TGI [50]: 53.1 µM
- GI50 [51]: 5.79 µM
- TGI [51]: 34 µM
- GI50 [52]: 6.06 µM
- TGI [52]: 19.3 µM
- GI50 [53]: 2.99 µM
- TGI [53]: 12.7 µM
- GI50 [54]: 5.4 µM
- TGI [54]: 19.8 µM
- GI50 [55]: 3.05 µM
- TGI [55]: 18.8 µM
- GI50 [56]: 4.11 µM
- TGI [56]: > 100 µM
- GI50 [57]: 3.09 µM
- TGI [57]: 17.6 µM
- GI50 [58]: 4.69 µM
- TGI [58]: 16.4 µM
- GI50 [59]: 3.56 µM
- TGI [59]: 12.3 µM
